According to US9586963B2 (GENFIT, priority 2011, dated 2017):

Legend:
Rev-Erb alpha [1] = target: T1, Rev-Erb alpha (Homo sapiens, UniProt P20393); test: M2H (mammalian two-hybrid) cellular activation assay of Rev-Erb alpha; format: cell-based; details: M2H assay, HEK293 cells, Gal4-Rev-Erb alpha / VP16-NCoR, luciferase reporter
T1 sequence (P20393 284-614 limits assumed): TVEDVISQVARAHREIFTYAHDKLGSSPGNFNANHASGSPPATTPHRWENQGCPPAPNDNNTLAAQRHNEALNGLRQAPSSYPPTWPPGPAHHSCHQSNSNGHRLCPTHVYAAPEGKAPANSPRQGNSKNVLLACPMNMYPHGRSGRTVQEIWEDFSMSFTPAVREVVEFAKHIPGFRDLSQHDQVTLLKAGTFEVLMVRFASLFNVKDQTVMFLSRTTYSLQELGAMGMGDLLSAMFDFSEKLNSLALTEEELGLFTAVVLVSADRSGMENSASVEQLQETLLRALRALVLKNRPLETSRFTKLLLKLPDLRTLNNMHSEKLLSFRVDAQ
How it was run: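 Six-point dose-response, 18 h, 37 °C, serum-free, in HEK293 cells carrying a Gal4-RE luciferase reporter with Gal4-Rev-Erb alpha or beta plus VP16-NCoR (corepressor interaction readout). EC50 and TOP activation (%) derived from luminescence across four experiments.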

db/db mice [2] = test: In vivo evaluation in db/db mice: glycemia, HbA1c, plasma triglycerides; details: once daily by gavage, 28 days
Description: 7-weeks-old male db/db mice were purchased from Charles River (France). Mice were 9-weeks-old at the beginning of the study. All mice were housed 2 per cage under controlled conditions of humidity, lighting and temperature. They had free access to food (R03, SAFE) and water.
Mice were randomized according to their body weight, and the non-fasting glycaemia, and assigned to 3 different groups: • Group 1: Control_Vehicle n=8 • Group 2: Cpd-4-39 25 mg/kg n=8 • Group 3: Cpd-4-39 100 mg/kg n=8 Treatments and Sample Analysis
The treatments were administered once daily, by gavage (10 mL/kg) for 28 consecutive days (unless otherwise mentioned). For oral administrations, compound was suspended in CMC 1%+Tween 80 0.1%.
Non fasting blood glucose level was determined from tail vein blood using a glucometer (Smart Chek, Kitvia), Blood samples were withdrawn under anesthesia by retro-orbital puncture at the end of the treatment period. Tubes containing blood were rapidly centrifuged after collection (15 minutes at 4,000 rpm/4° C.) and the plasma fraction was collected. Plasma aliquots were stored at −20° C. for further analyses.
The blood concentration of glycosylated hemoglobin A1c was determined using the Randox kit for Daytona automate (Randox, cat# HA 3830) according to the manufacturer's recommendations. Total hemoglobin and HbA1c concentrations were measured and the HbA1c result was expressed as a percentage of the total hemoglobin concentration.
The triglyceride content of plasma was measured using the Randox kit for Daytona automate (Randox, cat# TR 3823) according to the manufacturer's recommendations. In this protocol, the triglycerides are hydrolyzed by a lipase. The resulting glycerol concentration is then measured by an enzymatic method and spectrophotometric measurement. Results are expressed in mg/dL. • Oral Glucose Tolerance Test
At the end of the treatment period, animals were anesthetized with isoflurane and then sacrificed by cervical dislocation. Liver, quadriceps muscle and epididymal adipose tissues were collected. […]

Bmal1 = test: Gene expression of Rev-Erb alpha target gene Bmal1 in tissues of treated db/db mice; format: in vivo; details: 25 and 100 mpk, adipose tissue, muscle, liver
Excerpt: At the end of the treatment period, animals were anesthetized with isoflurane and then sacrificed by cervical dislocation. Liver, quadriceps muscle and epididymal adipose tissues were collected. The Student's t-test was used to test for statistical differences between drug and vehicle treatments when a single dose of drug was used while ANOVA followed by Dunnett's Multiple Comparison post hoc test was used for dose responses.
Gene expression studies have been performed on mRNA isolated from different metabolic tissues such as liver, adipose tissue and skeletal muscle. […] is considered as a target gene of Rev-Erba. Activation of Rev-Erba activity should then translate in a reduction of […] gene expression.

db/db mice [3] = test: Oral glucose tolerance test in db/db mice; format: in vivo; details: 50 mpk
Description: Oral glucose tolerance test (OGTT) was performed as followed, at day 35 of treatment, after a 16-hour fasting period, an oral glucose load was administered at T=0 (2 g/kg of glucose, 10 mL/kg) and glycemia was measured at the tail vein at T=15, 30, 60, 90, 120 & 180 minutes.
Oral glucose tolerance test is a widely used assay perform to assess the body's tolerance to an orally glucose bolus, it is considered as a good marker of insulin resistance and diabetes. […] Improvement of the body's insulin sensitivity is illustrated on FIG. 3(b).

Rev-Erb alpha [4] = target: T2, Rev-Erb alpha (Homo sapiens, UniProt P20393); details: Moore J T et al., 2006; cited from earlier work
T2 sequence (P20393 1-614): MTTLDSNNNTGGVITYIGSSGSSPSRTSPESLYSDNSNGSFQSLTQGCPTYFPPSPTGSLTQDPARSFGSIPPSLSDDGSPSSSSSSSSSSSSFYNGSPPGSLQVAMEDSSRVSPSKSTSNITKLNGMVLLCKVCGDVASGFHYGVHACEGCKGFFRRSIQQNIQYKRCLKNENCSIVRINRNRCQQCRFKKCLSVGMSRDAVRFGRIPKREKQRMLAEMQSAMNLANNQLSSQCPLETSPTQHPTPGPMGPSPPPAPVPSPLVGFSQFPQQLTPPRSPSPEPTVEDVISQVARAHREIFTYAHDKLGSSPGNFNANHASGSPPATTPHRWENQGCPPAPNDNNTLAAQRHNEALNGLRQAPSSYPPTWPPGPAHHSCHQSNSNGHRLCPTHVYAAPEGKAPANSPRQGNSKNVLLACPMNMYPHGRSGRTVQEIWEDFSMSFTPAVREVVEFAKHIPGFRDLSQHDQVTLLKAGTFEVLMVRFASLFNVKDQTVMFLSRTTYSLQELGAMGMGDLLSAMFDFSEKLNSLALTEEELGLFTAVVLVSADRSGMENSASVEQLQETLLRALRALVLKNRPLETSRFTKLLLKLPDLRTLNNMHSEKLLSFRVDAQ

Row | Structure (SMILES) | EC50 (Rev-Erb alpha [1]) | Circulating triglycerides (db/db mice [2]; 25 and 100 mpk) | HbA1c (db/db mice [2]; 25 and 100 mpk) | glycemia (db/db mice [2]; 100 mpk, compared to control mice) | Small expression in the studied organs (Bmal1 gene expression, FIGS. 13) (Bmal1) | area under the curve, glucose tolerance (db/db mice [3]; OGTT) | evolution of blood glucose in oral glucose tolerance test (db/db mice [3]; day 35, 16-hour fasting, 2 g/kg glucose) | Kd (Rev-Erb alpha [4])
1 | FC(F)(F)c1ccc(-c2cccnc2)c(Oc2ccc3nnc(Cl)n3n2)c1 | 100 to 1000 nM | reduced | significantly reduced | significantly reduced | significant inhibition | Cpd-4-39 dependent effect on glucose tolerance | improved evolution of their blood glucose | 
2 | C=CC1=C(C)c2cc3[n-]c(cc4[n-]c(cc5nc(cc1n2)C(C)=C5C=C)c(C)c4CCC(=O)O)c(CCC(=O)O)c3C.[Fe+2] [Heme] |  |  |  |  |  |  |  | 2000 to 3000 nM
